The values below come from patent publication US20240368225A1, “SELECTIVE SMALL MOLECULE AGONISTS AND PARTIAL AGONISTS OF TRK RECEPTORS” (THE TEXAS A&M UNIVERSITY SYSTEM, priority 2021, published 2024).

Read-outs that look alike come from different tables or passages of the source. *1 amine or outer side, *2 acyl side, *3 side chain or, on linkers, in order; H or OH if unused. Where a SMILES comes first, the peptide text is derived from it. Bridges are numbered along the chain shown (N, C = ends). X1 = COc1ccc(C2=C3C=C(S(=O)(=O)O)C([*:1])=[N+]3[B-](F)(F)n3c2cc(S(=O)(=O)O)c3[*:2])cc1

For experiment [1], the target named is HEK293-TrkB cells (Homo sapiens, UniProt Q16620). Briefly: HEK293-TrkB cell survival dose response (alamarBlue). Type of experiment: cell-based. The settings on record: for EC50: EC50, HEK293-TrkB cell survival, serum-free media, 48-72 hours; for Partial or True Agonism: HEK293-TrkB cell survival. The procedure: (§1) Cells were seeded at a density of 2000 cells per well. Cells were incubated in complete media for 24 hours. The media was aspirated, the cells washed twice with Dulbecco's Phosphate Buffered Saline, and the media was replaced with serum-free media to induce apoptosis unless otherwise halted. […] Cell survival was measured via alamarBlue assay after 48-72 hours to determine cell viability.
(§2) The most promising compounds from the screen were selected for each cell line. Cells were treated with a serial dilution of the compound in serum free media with or without suboptimal neurotrophin and incubated for 48-72 hours, after which an alamarBlue assay was done to determine cell viability. Cell viability was normalized to DMSO (0%) and optimal neurotrophin (100%), depending on cell type. EC50 was calculated in Graphpad Prism using the dose response “[agonist] vs response—Variable slope” function. Data is presented as the mean +/−standard deviation of an experiment with 3-6 replicates. Results for selected compounds with HeLa-TrkA cells can be found in FIG. 19A-19D. Results for selected compounds with HEK293-TrkB cells can be found in FIG. 20A-20C. Results for selected compounds with NIH3T3-TrkC cells can be found in FIG. 21A-21D.
Background: The colour change of resazurin is a common sign of viable cells or microbes.

In experiment [2] the test system is NIH3T3-TrkC cells. Type of experiment: cell-based. The settings on record: NIH3T3-TrkC cell survival. The procedure: as §1
Cells were treated with a serial dilution of the compound in serum free media with or without suboptimal neurotrophin and incubated for 48-72 hours, after which an alamarBlue assay was done to determine cell viability. Cell viability was normalized to DMSO (0%) and optimal neurotrophin (100%), depending on cell type. EC50 was calculated in Graphpad Prism using the dose response “[agonist] vs response—Variable slope” function. Data is presented as the mean +/−standard deviation of an experiment with 3-6 replicates.

The target in experiment [3] is TrkA (Homo sapiens, UniProt P04629). The following applies: background statement; cited from earlier work.
The target of experiment [4] is TrkC (Homo sapiens, UniProt Q16288). The following applies: background statement; cited from earlier work.
The target in experiment [5] is T1, p75 (Homo sapiens, UniProt P08138).
T1 sequence (P08138 29-427): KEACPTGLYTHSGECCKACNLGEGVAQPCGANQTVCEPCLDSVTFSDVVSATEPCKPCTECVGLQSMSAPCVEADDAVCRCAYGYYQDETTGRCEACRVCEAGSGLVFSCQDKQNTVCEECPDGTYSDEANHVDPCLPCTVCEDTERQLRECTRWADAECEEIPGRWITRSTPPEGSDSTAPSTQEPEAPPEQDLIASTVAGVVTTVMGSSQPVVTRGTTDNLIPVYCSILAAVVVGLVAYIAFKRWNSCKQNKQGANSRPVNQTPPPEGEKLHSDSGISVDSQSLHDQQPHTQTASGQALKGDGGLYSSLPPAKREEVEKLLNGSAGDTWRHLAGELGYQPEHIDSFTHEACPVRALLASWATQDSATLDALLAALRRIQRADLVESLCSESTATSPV
The following applies: background statement; cited from earlier work.

The subject of experiment [6] is Goblet cells. The following applies: in vitro, background statement; cited from earlier work.
Experiment [7] concerns HeLa-TrkA cells. Type of experiment: cell-based. The procedure: as §1, §2
Setting [8] is: without suboptimal neurotrophin.
[9] abbreviates: HeLa-TrkA cell survival, without suboptimal neurotrophin.
[10] abbreviates: HeLa-TrkA cell survival, + 0.2 nM NGF.
[11] abbreviates: HeLa-TrkA cell survival, serum-free media, + 0.2 nM NGF (suboptimal), 48-72 hours, read-out: EC50.
The mark [12] stands for this setting: HeLa-TrkA cell survival, serum-free media, without suboptimal neurotrophin, 48-72 hours, read-out: EC50.

Chain of HEK293-TrkB cells (Q16620 32-822): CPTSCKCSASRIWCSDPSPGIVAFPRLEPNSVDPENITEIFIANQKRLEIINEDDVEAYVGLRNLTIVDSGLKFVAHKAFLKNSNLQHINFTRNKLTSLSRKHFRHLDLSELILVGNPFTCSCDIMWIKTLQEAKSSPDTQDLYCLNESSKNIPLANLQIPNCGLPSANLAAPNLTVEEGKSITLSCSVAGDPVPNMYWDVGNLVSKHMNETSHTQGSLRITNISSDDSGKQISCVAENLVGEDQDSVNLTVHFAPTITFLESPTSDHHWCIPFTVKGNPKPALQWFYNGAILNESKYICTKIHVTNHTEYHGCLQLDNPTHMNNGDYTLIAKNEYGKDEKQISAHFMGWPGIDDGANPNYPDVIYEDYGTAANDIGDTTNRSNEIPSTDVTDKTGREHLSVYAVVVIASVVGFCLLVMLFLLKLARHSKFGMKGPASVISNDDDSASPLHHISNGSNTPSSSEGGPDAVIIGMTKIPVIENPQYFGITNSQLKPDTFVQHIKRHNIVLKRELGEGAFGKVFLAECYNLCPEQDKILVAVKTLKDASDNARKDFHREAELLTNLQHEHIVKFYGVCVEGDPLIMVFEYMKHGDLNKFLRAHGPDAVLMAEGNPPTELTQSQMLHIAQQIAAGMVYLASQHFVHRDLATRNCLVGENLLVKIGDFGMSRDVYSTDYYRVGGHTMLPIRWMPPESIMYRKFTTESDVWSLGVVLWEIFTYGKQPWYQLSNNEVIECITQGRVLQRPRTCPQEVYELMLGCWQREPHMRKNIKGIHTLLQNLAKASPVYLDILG
Chain of TrkC (Q16288 32-839, species assumed): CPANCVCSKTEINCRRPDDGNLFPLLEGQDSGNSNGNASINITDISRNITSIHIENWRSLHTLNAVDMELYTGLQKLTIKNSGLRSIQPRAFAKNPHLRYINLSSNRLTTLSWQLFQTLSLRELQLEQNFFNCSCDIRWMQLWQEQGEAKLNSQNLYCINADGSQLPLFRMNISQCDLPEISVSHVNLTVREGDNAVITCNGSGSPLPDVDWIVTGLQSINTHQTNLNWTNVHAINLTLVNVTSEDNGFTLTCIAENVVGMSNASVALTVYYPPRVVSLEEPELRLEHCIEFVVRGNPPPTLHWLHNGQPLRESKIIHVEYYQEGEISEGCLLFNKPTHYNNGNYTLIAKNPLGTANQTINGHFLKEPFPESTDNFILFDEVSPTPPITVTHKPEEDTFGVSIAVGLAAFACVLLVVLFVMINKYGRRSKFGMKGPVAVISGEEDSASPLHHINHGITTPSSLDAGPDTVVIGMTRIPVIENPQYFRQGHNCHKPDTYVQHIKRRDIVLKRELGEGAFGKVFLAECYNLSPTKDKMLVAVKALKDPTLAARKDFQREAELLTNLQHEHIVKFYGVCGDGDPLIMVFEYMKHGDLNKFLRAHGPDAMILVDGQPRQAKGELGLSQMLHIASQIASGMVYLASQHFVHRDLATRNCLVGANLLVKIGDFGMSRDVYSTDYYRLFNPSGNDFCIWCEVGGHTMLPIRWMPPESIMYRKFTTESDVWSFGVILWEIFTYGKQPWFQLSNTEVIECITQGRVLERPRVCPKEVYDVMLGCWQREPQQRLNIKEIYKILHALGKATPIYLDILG
Chain of TrkA (P04629 33-796, species assumed): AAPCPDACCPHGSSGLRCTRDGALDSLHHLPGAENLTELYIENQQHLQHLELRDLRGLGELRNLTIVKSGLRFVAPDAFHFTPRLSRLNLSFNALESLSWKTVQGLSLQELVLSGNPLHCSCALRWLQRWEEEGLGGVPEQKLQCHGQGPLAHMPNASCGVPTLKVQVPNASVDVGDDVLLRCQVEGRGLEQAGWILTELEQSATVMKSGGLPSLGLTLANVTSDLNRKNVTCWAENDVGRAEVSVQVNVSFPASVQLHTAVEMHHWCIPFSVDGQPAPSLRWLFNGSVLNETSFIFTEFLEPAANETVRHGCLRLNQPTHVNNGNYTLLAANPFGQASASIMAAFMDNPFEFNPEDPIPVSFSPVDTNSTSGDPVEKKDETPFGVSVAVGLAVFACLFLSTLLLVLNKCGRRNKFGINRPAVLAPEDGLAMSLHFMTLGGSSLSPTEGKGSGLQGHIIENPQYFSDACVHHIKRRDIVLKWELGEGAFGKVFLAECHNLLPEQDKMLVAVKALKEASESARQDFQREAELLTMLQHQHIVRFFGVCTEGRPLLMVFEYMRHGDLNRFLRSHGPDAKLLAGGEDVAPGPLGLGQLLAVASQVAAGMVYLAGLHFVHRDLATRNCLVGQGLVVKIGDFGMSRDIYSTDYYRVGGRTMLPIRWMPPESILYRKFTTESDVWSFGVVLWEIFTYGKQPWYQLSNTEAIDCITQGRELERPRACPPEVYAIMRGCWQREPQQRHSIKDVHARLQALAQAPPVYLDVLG

The EC50 is the concentration giving half of the maximal effect. Turning to `CC[C@H](C)[C@@H]1NC(=O)[C@H](CC(=O)O)NC(=O)[C@@H](NC(C)=O)CSC2=[N+]3C(=C(c4ccc(OC)cc4)c4cc(S(=O)(=O)O)c(n4[B-]3(F)F)SC[C@@H](C(N)=O)NC(=O)CNC(=O)[C@H](CCCNC(=N)N)NC1=O)C=C2S(=O)(=O)O` [5c(i)] (Ac-CDIRGC-NH2; linker 1-6 via X1), the EC50 was determined as 2200 nM in experiment [1] (+ 0.6 nM BDNF (suboptimal)) and 100 nM in experiment [1] (setting [8]). In addition, the “Partial or True Agonism” value in experiment [1] (+ 0.6 nM BDNF) is given as “partial”; in experiment [1] (setting [8]) it was “true”; in experiment [2] (+ 0.2 nM NT3) it was “partial”; in experiment [2] (setting [8]), “true”.

On to Tavilermide [D3], for which the TrkA agonism result in experiment [3] is reported as “partial TrkA agonist”. For the same molecule, the TrkC binding result in experiment [4] is given as “does not bind TrkC”. Moreover, in experiment [5], the p75 activation entry is recorded as “does not activate p75”. Also, in experiment [6], the glycoconjugated mucin secretion entry is given as “increased glycoconjugated mucin secretion”.

On to `COc1ccc(C2=C3C=C(S(=O)(=O)O)C4=[N+]3[B-](F)(F)n3c2cc(S(=O)(=O)O)c3SC[C@@H](C(N)=O)NC(=O)CNC(=O)[C@H](CO)NC(=O)[C@H](CCSC)NC(=O)[C@H](CC(=O)O)NC(=O)[C@@H](NC(C)=O)CS4)cc1` [5b(i)] (Ac-CDMSGC-NH2; linker 1-6 via X1), for which the results for the EC50 in experiment [1] (+ 0.6 nM BDNF (suboptimal)) and in experiment [1] (setting [8]) were 1800 nM and 400 nM, respectively. The “Partial or True Agonism” value in experiment [1] (+ 0.6 nM BDNF) is given as “partial”; in experiment [1] (setting [8]), “true”.

In turn, `CC[C@H](C)[C@@H]1NC(=O)[C@@H]2C[C@@H](CN2)NC(=O)[C@H](CO)NC(=O)[C@H](CC(N)=O)NC(=O)[C@H](CC(N)=O)NC1=O` [3a(ii)] gave an EC50 in experiment [7] of 10000 nM. Further, the “Partial or True Agonism” value in experiment [7] (setting [9]) is recorded as “true”.

Take `COc1ccc(C2=C3C=C(S(=O)(=O)O)C4=[N+]3[B-](F)(F)n3c2cc(S(=O)(=O)O)c3SC[C@@H](C(N)=O)NC(=O)[C@H](CCCCN)NC(=O)[C@H](CC(N)=O)NC(=O)[C@H](CC(N)=O)NC(=O)[C@H](CCC(=O)O)NC(=O)[C@@H](NC(C)=O)CS4)cc1` [5c(iii)] (Ac-CENNKC-NH2; linker 1-6 via X1): the entries for the “Partial or True Agonism” value in experiment [2] (+ 0.2 nM NT3) and in experiment [2] (setting [8]) were “partial” and “true”, respectively.

`CC[C@H](C)[C@@H]1NC(=O)[C@H](CC(N)=O)NC(=O)C(C(C)C)n2cc(nn2)CC(C(=O)N[C@@H](CCCCNS(=O)(=O)c2cccc3c(N(C)C)cccc23)C(=O)O)NC(=O)[C@H](Cc2ccccc2)NC(=O)[C@H](C(C)C)NC(=O)[C@H](CO)NC(=O)[C@H](CC(N)=O)NC(=O)[C@H](CC(N)=O)NC1=O` (stereo partly drawn) [1a(ii)ext] registered an EC50 in experiment [7] of 7070 nM. For the same molecule, the “Partial or True Agonism” value in experiment [7] (setting [9]) was “true”.

Take `COc1ccc(C2=C3C=C(S(=O)(=O)O)C4=[N+]3[B-](F)(F)n3c2cc(S(=O)(=O)O)c3SC[C@@H](C(N)=O)NC(=O)[C@H](CCC(N)=O)NC(=O)[C@H](CCCCN)NC(=O)[C@H](CCC(=O)O)NC(=O)[C@H](CC(=O)O)NC(=O)[C@@H](NC(C)=O)CS4)cc1` [5a(iii)m] (Ac-CDEKQC-NH2; linker 1-6 via X1): the “Partial or True Agonism” value was “partial” in experiment [7] (setting [10]) and “true” in experiment [7] (setting [9]). Further, the values for the EC50 in experiment [7] (setting [11]) and in experiment [7] (setting [12]) were 500 nM and 2400 nM, respectively.

As for `COc1ccc(C2=C3C=C(S(=O)(=O)O)C4=[N+]3[B-](F)(F)n3c2cc(S(=O)(=O)O)c3SC[C@@H](C(N)=O)NC(=O)CNC(=O)[C@H](CCCCN)NC(=O)[C@H](CO)NC(=O)[C@H](C(C)C)NC(=O)[C@@H](NC(C)=O)CS4)cc1` [5b(ii)] (Ac-CVSKGC-NH2; linker 1-6 via X1), the EC50 stood at 2800 nM in experiment [1] (+ 0.6 nM BDNF (suboptimal)) and 900 nM in experiment [1] (setting [8]). For the same molecule, the figures for the “Partial or True Agonism” value in experiment [1] (+ 0.6 nM BDNF) and in experiment [1] (setting [8]) were “partial” and “true”, respectively.

In the case of `COc1ccc(C2=C3C=C(S(=O)(=O)O)C4=[N+]3[B-](F)(F)n3c2cc(S(=O)(=O)O)c3SC[C@@H](C(N)=O)NC(=O)[C@H](CO)NC(=O)[C@H](CC(N)=O)NC(=O)[C@H](CCC(N)=O)NC(=O)[C@H]([C@@H](C)O)NC(=O)[C@@H](NC(C)=O)CS4)cc1` [5c(ii)] (Ac-CTQNSC-NH2; linker 1-6 via X1), the “Partial or True Agonism” value in experiment [7] (setting [10]) was “partial”; in experiment [7] (setting [9]), “true”. For the same molecule, the EC50 in experiment [7] (setting [11]) is 300 nM; in experiment [7] (setting [12]), 4500 nM.

With `CC[C@H](C)[C@@H]1NC(=O)[C@H](CC(=O)O)NC(=O)[C@@H]2C[C@@H](CN2)NC(=O)CNC(=O)[C@H](CCCNC(=N)N)NC1=O` [3c(i)], the “Partial or True Agonism” value in experiment [2] (+ 0.2 nM NT3) is recorded as “partial”.
